Molecules are shown by their SMILES.

One data set deals with mouse cortical cultures. The data set is described as follows: TPEN-induced caspase-3 activity. It counts as cell-based. From the text: Generally, application of TPEN as a zinc chelator easily flowing into the cells causes a cell death in the form of typical apoptosis (EDTA is not introduced into the cells). When adding zinc to the above treatment, intracellular free zinc ions are retained thus to reduce neuronal death and further reduce caspase-3 protease activity in the apoptosis process. Under expectation such that: the drug #28 and clioquinol may not only serve as a chelator but also play a role of an ion permeable carrier; these drugs flow into cells as combined with zinc; thereafter, the zinc is removed from the drug because a concentration of free zinc in the cytoplasm is too low; therefore, the concentration of free zinc in the cytoplasm is increased thus to reduce neurotoxicity due to TPEN, caspase-3 activity and neurotoxicity (LDH secretion) were under observation after treatment using zinc, the drug #28 and clioquinol.

Data set [1] concerns the target T1, recombinant AMPK (α2/β1/γ1) (Homo sapiens, UniProt P54646).
T1 construct: purchased CycLex, Japan
Briefly: AMPK enzymatic activity assay (CycLex kit). Type of data set: biochemical. How it is done:
More particularly, AMPK enzymatic activity was measured by an AMPK activity assay kit (CycLex, Japan) and recombinant AMPK (α2/β1/γ1 CycLex, Japan).

A further data set relates to neuronal cells. Briefly: Ionomycin (calcium ionophore) neurotoxicity. Conditions: 10 to 60 μM tested. Type of data set: cell-based. How it is done: In order to determine whether the above result is obtained by the chelation of Ca^2+ ions other than the drug #28, protective effects of the drug #28 (10 to 60 μM) after treatment using ionomycin, which is a calcium ion permeable carrier (‘calcium ionophore’) directly increasing the intracellular calcium concentration, were under observation. Further, using a Fura-2 dye that is combined with calcium to represent fluorescence, it was monitored whether the drug #28 is combined with calcium on a test tube and represents chelating effects.

The test system of data set [2] is cultured cerebral cortex neurons of a mouse. The data set is described as follows: Inhibition of a variety of neurotoxicity, LDH assay (quaternary screening). It counts as cell-based. Conditions: 20 μM, NMDA, FeCl2, H2O2, TPEN, staurosporine, etoposide toxicity. How it is done:
More particularly, the cultured cerebral cortex neurons of a mouse were treated with 50 μM NMDA, 50 μM FeCl2, 100 μM H2O2, 2 μM TPEN (N,N,N′,N′-tetrakis (2-pyridylmethyl) ethylenediamine, Sigma), 500 nM staurosporine (Abcam) and 10 μM etoposide (Sigma), respectively, to induce neurotoxicity, followed by treatment using the selected 7 compounds at a concentration of 20 μM in order to observe neuro-protective effects. A degree of apoptosis of these cells was quantified by LDH assay. The neurotoxicity models used above include, for example, excitotoxicity, oxidative damage and apoptosis that are considered as a cause mechanism of stroke, in particular, the excitotoxicity model was NMDA, the oxidative damage model was iron toxicity and H2O2 toxicity models, and the apoptosis model was TPEN, staurosporine and etoposide toxicity models. The TPEN is a zinc chelator which is well known to cause typical apoptosis in neuronal cells, staurosporine is an enzyme inhibitor (kinase inhibitor) which is also well known as one of typical apoptosis inductive materials, and etoposide is a drug known to cause apoptosis due to DNA damage.

The test system is the same in data set [3]. Briefly: Zinc ion permeable carrier test, ZinPyr-1. Type of data set: cell-based. How it is done:
ZinPyr-1 is a fluorescent dye which has a lower Kd value than that of FluoZin-3 and is used to measure a change in a zinc concentration even at a lower concentration. Whether the drug #28 of the present invention can act as an ion permeable carrier was under observation using ZinPyr-1. More particularly, the cultured cerebral cortex neurons of a mouse were treated with ZinPyr-1 then treated with the drug #28 (0.05 μM) and clioquinol (0.5 μM) in a typically used neuronal cell culture medium, so as to determine a change in zinc ion concentrations in the neurons. Also, a non-treatment group was used as a control group.
Therefore, after adding a further 0.5 μM concentration of zinc to the cell culture medium, a change in zinc concentration in the cells was under observation.

Data set [4] is described as follows: Free zinc concentration by fluorescent dye (Newport green DCF, FluoZin-3). It counts as physicochemical. How it is done:
Further, in conjunction with clioquinol (20 μM) or the drug #28 (20 μM), a zinc fluorescent dye, i.e., Newport green DCF (0.5 μM, Kd(Zn)=1 uM) or FluoZin-3 (0.5 μM, Kd(Zn)=15 nM) was used for measurement of free zinc concentration.

For data set [5], the system named is male Sprague-Dawley (SD) rats. The data set is described as follows: Acute toxicity test. To be noted: 75 μg/kg intra-cerebroventricular. It counts as in vivo. Set-up: RBC: unit not given here. From the text: This procedure was repeated 4 times.
Further, the rat was sacrificed, and specific organs such as the liver, spleen and kidney were extracted, followed by measurement of weights thereof (FIG. 7).

The test system of data set [6] is male Sprague-Dawley (SD) rat. Briefly: Permanent middle cerebral artery occlusion (MCAO) stroke model. Type of data set: in vivo. How it is done:
More particularly, a permanent middle cerebral artery (MCA) occlusion model was prepared using a male Sprague-Dawley (SD) rat aged 8 to 9 weeks. At time points of 30 minutes before MCAO and 10 minutes after the same, cerebral blood flow (CBF) was measured by a laser-doppler flowmeter and the measured results are shown in Table 3 below. Then, 15 minutes after middle cerebral artery occlusion (MCAO), the compound #28, which is finally selected as an AMPK inhibitor (75 ng/3 μl), or a vehicle (10% DMSO) was provided to an area of 0.8 mm on a back and 1.2 mm on a lateral of bregma at a depth of 3.8 mm through intra-cerebroventricular injection. Thereafter, a degree of lack of movement (‘motor deficit’) was evaluated in the rat, in particular, standards for evaluation are classified as follows (Longa et al., 1989): no deficiency (normal); failure of extending the front foots when vertically stopping (mild); rotation on the opposite side (moderate); and rotation loss (loss of circling) or loss of reflex motion (serious deficit). After induction of ischemia in the rat model, the brain was obtained at the time of lapse of 24 hours, followed by determining a level of cerebral infraction by staining the brain with 2% 2,3,5-triphenyl tetrazolium chloride (TTC).

T1 sequence (P54646 whole entry): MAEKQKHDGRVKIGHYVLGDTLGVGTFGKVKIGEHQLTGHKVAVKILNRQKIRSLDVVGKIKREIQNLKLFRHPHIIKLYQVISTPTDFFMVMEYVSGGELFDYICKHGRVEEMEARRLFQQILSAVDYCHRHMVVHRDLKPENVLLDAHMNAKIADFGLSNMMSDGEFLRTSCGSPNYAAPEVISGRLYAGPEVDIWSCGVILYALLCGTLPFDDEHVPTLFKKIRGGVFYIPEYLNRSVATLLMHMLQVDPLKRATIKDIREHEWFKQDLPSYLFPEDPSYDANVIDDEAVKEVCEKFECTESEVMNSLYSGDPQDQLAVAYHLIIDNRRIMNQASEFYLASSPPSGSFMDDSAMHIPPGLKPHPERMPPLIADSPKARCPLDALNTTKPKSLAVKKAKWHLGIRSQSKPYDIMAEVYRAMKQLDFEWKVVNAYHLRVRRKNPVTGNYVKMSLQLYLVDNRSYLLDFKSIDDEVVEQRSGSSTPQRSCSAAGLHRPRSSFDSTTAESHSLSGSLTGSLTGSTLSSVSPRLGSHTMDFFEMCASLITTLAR
T1 sequence (Q9Y478 whole entry partner): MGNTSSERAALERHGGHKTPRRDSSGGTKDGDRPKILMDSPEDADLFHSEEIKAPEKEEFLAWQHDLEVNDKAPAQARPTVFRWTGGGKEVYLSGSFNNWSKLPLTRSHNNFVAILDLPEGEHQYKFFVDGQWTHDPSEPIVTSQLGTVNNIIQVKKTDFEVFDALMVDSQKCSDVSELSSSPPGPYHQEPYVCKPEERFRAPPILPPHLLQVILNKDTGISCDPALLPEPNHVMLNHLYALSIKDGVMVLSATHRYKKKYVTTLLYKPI
T1 sequence (P54619 whole entry partner): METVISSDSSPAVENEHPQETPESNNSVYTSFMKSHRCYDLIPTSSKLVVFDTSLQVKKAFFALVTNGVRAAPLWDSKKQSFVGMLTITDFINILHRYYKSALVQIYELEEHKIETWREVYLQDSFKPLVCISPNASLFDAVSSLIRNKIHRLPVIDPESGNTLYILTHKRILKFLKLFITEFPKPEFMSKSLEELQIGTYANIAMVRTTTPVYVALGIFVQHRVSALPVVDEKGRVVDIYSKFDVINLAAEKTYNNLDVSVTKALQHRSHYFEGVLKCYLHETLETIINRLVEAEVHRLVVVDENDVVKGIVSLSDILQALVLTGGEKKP

What is called remaining activity is the share of the control activity or signal that is left under treatment. `O=C1N=C(Nc2cccc(O)c2)S/C1=C\c1c[nH]c2ccccc12` [compound 28, (Z)-5-((1H-indol-3-yl)methylene)-2-((3-hydroxyphenyl)amino)thiazol-4(5H)-one]: the “caspase-3 activity induced by TPEN” value in the data set on mouse cortical cultures is on record as “significantly reduce caspase-3 activity induced by TPEN”. For the same compound, the remaining activity at 10 µM in data set [1] came out at 3.97%. Also, the “concentration exhibiting toxicity protective effects against ionomycin” value in the data set with neuronal cells was “more than 40 μM”. Also, in data set [2], the “inhibitory effects on neurotoxicity” value is recorded as “inhibitory effects on any toxicity”. Further, in data set [3] (#28 0.05 μM, clioquinol 0.5 μM), the “increase of zinc in neurons, general culture conditions” value is “not clearly demonstrated”. Further, the “increase of zinc in neurons, zinc-supplemented medium” value in data set [3] (further 0.5 μM zinc added to the cell culture medium) was “significant increase in zinc”. In data set [4], the “zinc affinity compared to clioquinol” value was “considerably low compared to clioquinol”. Also, the “free zinc concentration, low concentration zinc” value in data set [4] (20 μM, FluoZin-3 (FIG. 13)) is recorded as “did not show remarkable effects”. For the same compound, the “free zinc concentration, high concentration zinc” value in data set [4] (20 μM, Newport green DCF (FIG. 12)) is “exhibited effects of decreasing the free zinc concentration”. Further, the free zinc ions result in data set [4] (20 μM, Newport green DCF or FluoZin-3) was “reduce free zinc ions”. Further, the “toxicity by blood indicators compared to control group” value in data set [5] is “noticeable toxicity was not observed”. Besides, the dead rats result in data set [5] (24 hours) is “dead rats were not found”. In data set [5] (n = 4, blood), this compound gave an ALT of 54.5 ± 8.2 U/L, an AST of 142.3 ± 50.7 U/L, a BUN of 17.6 ± 1.8 mg/dL and a CREA of 0.5 ± 0.0 mg/dL. Further, in data set [5] (n = 4, blood), the GLU came to 174.6 ± 18.0 mg/dL, the RBC is given as 7.4 ± 0.5 ×10^3 and the WBCB is listed as 11.6 ± 1.9 ×10^3 cell/uL. In addition, in data set [6] (75 ng/3 μl intra-cerebroventricular 15 min after MCAO, TTC staining at 24 hours), the “brain damage due to permanent MCAO” value was “significantly inhibit brain damage”. In data set [6] (MCAO rat, 75 ng/3 μl intra-cerebroventricular), the “Weight reduction” value is on record as 43.8 ± 6.1 g.

These data come from US20190167647A1, “PHARMACEUTICAL COMPOSITION FOR STROKE TREATMENT BASED ON AMPK INHIBITION” (INDUSTRY ACADEMY COOPERATION FOUNDATION OF SEJONG UNIVERSITY, priority 2016, published 2019).
